For the experiment, the system named is tracheal secretion in mice. As to the kind of experiment: Mouse phenol red excretion assay (tracheal secretion). The following applies: 1.0 g/kg/d*6 d, i.g. 6 d. It counts as in vivo, ICR mice. As for the experimental part:
50 male ICR mice, weighing about 21 g, were randomly divided into 5 groups: control group 1 (normal saline, NS), control group 2 (normal saline, NS), positive control group (ammonium chloride, 1 g/kg), drug group 1 (0.2 mg/ml of magnesium isoglycyrrhizinate liquid preparation for use in nebulizers, nebulizing for 30 min), drug group 2 (0.2 mg/ml of magnesium isoglycyrrhizinate liquid preparation for use in nebulizers, nebulizing for 15 min). The mice in control group 1 and the positive control group were intragastrically administered with the corresponding drugs (0.1 ml/10 g), the mice in control group 2 and the drug group 1 were aerosolizing administered with a nebulizer for 30 min, while the mice in drug group 2 were 15 min. The administration frequency was once a day for 6 consecutive days. Before the 6th administration, the mice were starved for 16-18 hours, only allowed for drinking water. After 30 minutes of administration, i.p. 1% phenol red physiological in saline solution 0.2 ml/10 g was injected and 30 minutes later, the mice were killed by cervical dislocation. […] Among them, each drug group was compared with the control group 2, ^ΔΔp<0.01.

The source of these data is patent publication US11534398B2, “Inhaled preparation of isoglycyrrhizic acid or salt thereof, and use in preparing drugs for treating respiratory system diseases” (priority 2016, dated 2022).

For `Cl.N` [ammonium chloride], the “Amount of phenol red excretion” value was determined as 0.5924 ± 0.3781 µg/mL.
